Common to all, as to assay type: cell-based
Test [1] has as its system bifidobacteria. Kind of test: Experimental Example 1-1: addition test of amino acid and fructo-oligosaccharide to human feces suspension. Particulars: amino acid added together with 0.5% FOS, anaerobic culture 4 days at 37° C., quantitative PCR, compared with FOS alone. Here is the method:
The PBS solutions for the Examples and Comparative Examples shown in Table 1-1 were prepared and used as media for a feces culture. PBS alone was used as a control. Fructo-oligosaccharide (FOS) manufactured by Wako Pure Chemical Industries, Ltd. (#064-02385) was used.
(§1) Thereafter, 10 ml of each solution was dispensed into glass vials and the glass vials were sterilized by autoclave, made anaerobic, and sealed with a butyl rubber stopper. The feces suspension was prepared by collecting about 10 g of feces from 3 healthy individuals (one man and two women) in their 20s to 40s and suspending same in 80 ml of anaerobic PBS. The feces suspension was added to each vial by 0.5 ml, placed in an incubator at 37° C., and anaerobically cultured for 4 days with tumble blending once per day. After completion of the culture, an intestinal bacterial pellet was obtained from the entire amount of the culture medium by centrifugation (8,000×g, 5 min). DNA was extracted from this pellet using ISOFECAL for BeadsBeat (manufactured by NIPPON GENE CO., LTD.), and quantitative PCR was performed using GeneAce SYBR qPCR Mix α (manufactured by NIPPON GENE CO., LTD.). Quantitative PCR was performed under the conditions of 45 cycles of 95° C. for 30 sec and 60° C. for 60 sec after 95° C. for 10 min. Primers for quantitative PCR used for detection bifidobacteria are as follows:
(§2) Using the results obtained by quantitative PCR, the relative amount when the control is 1 was calculated, and the results were normalized with z-score.

In test [2] the test system is bifidobacteria. Kind of test: Experimental Example 1-2: addition test of amino acid and fructo-oligosaccharide to human feces suspension. Particulars: amino acid added together with 0.5% FOS, anaerobic culture 4 days, quantitative PCR, compared with FOS alone. The protocol: as §1
The PBS solutions for the Examples and Comparative Examples shown in Table 1-2 were prepared and used as media for a feces culture. […]
as §2

Test [3] has as its system bifidobacteria. The test can be described thus: Experimental Example 2: addition test of amino acid and galacto-oligosaccharide to human feces suspension. Conditions: amino acid added together with 0.5% GOS, anaerobic culture 4 days, quantitative PCR, compared with GOS alone. Here is the method:
as §1
The PBS solutions for the Examples and Comparative Examples shown in Table 2 were prepared and used as media for a feces culture. […]
as §2

With `CC(C)[C@H](N)C(=O)O` [Val, L-valine], the proliferation of bifidobacteria result in the test on bifidobacteria [1] is “greater proliferation of bifidobacteria than that with FOS alone”.

Consider `N[C@@H](Cc1c[nH]cn1)C(=O)O` [His, L-histidine], for which the proliferation of bifidobacteria entry with bifidobacteria [2] was “greater proliferation of bifidobacteria than that with FOS alone”.

`N[C@@H](CCC(=O)O)C(=O)O` [Glu, L-glutamic acid]: the proliferation of bifidobacteria result with bifidobacteria [1] is given as “greater proliferation of bifidobacteria than that with FOS alone”; in the test on bifidobacteria [3], “greater proliferation of bifidobacteria than that with GOS alone”.

For the compound `CC[C@H](C)[C@H](N)C(=O)O` [Ile, L-isoleucine], the proliferation of bifidobacteria result in the test with bifidobacteria [1] is reported as “greater proliferation of bifidobacteria than that with FOS alone”.

On to `NC(=O)CC[C@H](N)C(=O)O` [Gln, L-glutamine], for which the proliferation of bifidobacteria entry in the test with bifidobacteria [1] was “greater proliferation of bifidobacteria than that with FOS alone”.

With `O=C(O)[C@@H]1CCCN1` [Pro, L-proline], the proliferation of bifidobacteria entry in the test on bifidobacteria [2] is given as “greater proliferation of bifidobacteria than that with FOS alone”.

For `NCCCC[C@H](N)C(=O)O` [Lys, L-lysine], the proliferation of bifidobacteria result in the test with bifidobacteria [1] is on record as “greater proliferation of bifidobacteria than that with FOS alone”; with bifidobacteria [3], “greater proliferation of bifidobacteria than that with GOS alone”.

For `C[C@H](N)C(=O)O` [Ala, L-alanine], the proliferation of bifidobacteria entry in the test on bifidobacteria [1] is “greater proliferation of bifidobacteria than that with FOS alone”.

The values are drawn from patent publication US11376215B2, “Feed composition for improving intraintestinal environment” (AJINOMOTO CO., INC., priority 2017, dated 2022).
